According to PubChem BioAssay AID540258 (Broad Institute, 2011):
Calls of active or inactive are those of the source.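 The calls were made as follows: active = fitted curve reaching 40% activation at or below the top valid dose tested; inconclusive = flat curve at 30 to 70% activation, or poor fit; inactive = the rest.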

Tested on: not listed separately
Assay: MITF activators via TRPM1 promoter reporter, dose response, SK-MEL-5 cells, luciferase, cherry-pick samples (AID 540258);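 as to AC40: potency for activators that raise TRPM1 promoter luciferase signal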
Conditions: SK-MEL-5 TRPM1 promoter luciferase reporter, 24 h; at 11 µM (top of the series); 100% = twice the neutral-control signal

Q: With `Cc1ccn2cc(C(=O)Nc3nnc(C)s3)nc2c1` as the compound, how does the activation read?
A: Its activation is 28.3% (inactive).

Same assay, conditions: SK-MEL-5 TRPM1 promoter luciferase reporter, 24 h; at 35 µM (top of the series); 100% = twice the neutral-control signal

Q: With `Cc1ccc(/C=N/c2sc3c(c2C#N)CCC3)s1` as the compound, how does the activation read?
A: Its activation is 3.01% (inactive).

Q: For `CC(C)(C)N1C(=O)c2ccc(C(=O)Nc3nccs3)cc2C1=O`, which activation is on record?
A: Its activation is 39% (inactive).

Q: For `COc1ccc(-c2cc(=O)c3cc(C)ccc3[nH]2)cc1`, which activation is on record?
A: Its activation is -4.97% (inactive).

Q: Which activation does the source give for `COC(=O)Nc1nnc(-c2ccccc2Cl)s1` here?
A: Its activation is 36% (inactive).

Q: For `Cc1cc(C)n2nc(SCN3C(=O)c4ccccc4C3=O)nc2n1`, which activation is on record?
A: Its activation is -5.27% (inactive).

Q: For `CC1CCC(NC(=O)c2cc3c(s2)CCCC3)CC1` (stereo unspecified), which activation is on record?
A: The activation was 33.2% (inactive).

Q: With `CCN(CC)C(=O)Oc1ccc2c(=O)c(-c3ccc(OC)cc3)coc2c1` as the compound, how does the activation read?
A: The activation was -22.5% (inactive).

Q: Which activation does the source give for `O=C(N/N=C/c1ccc(OC(=O)c2ccccc2Cl)cc1)c1ccccn1` here?
A: The activation was 6.04% (inactive).

Q: Which activation does the source give for `O=C(Nc1cccc2[nH]ncc12)c1ccc(F)cc1` here?
A: Its activation is 28.3% (inactive).

Q: For `Cc1ccc(N=Nc2ccc(O)cc2)c(Br)c1`, which activation is on record?
A: The activation was -1.83% (inactive).

Q: For `Cc1ccc(SCc2cn3c(C)csc3n2)cc1`, which activation is on record?
A: Its activation is -37.7% (inactive).

Q: With `Cc1ccc2oc(Nc3nc(C)c(C)c(C)n3)nc2c1` as the compound, how does the activation read?
A: Its activation is 34.2% (inactive).

Q: With `Cc1cc(C)n(-c2nnc(NC(C)(C)C)nn2)n1` as the compound, how does the activation read?
A: The activation was 31.6% (inactive).

Q: For `COc1cccc(/C=N/Nc2c(Cl)cncc2Cl)c1O`, which activation is on record?
A: The activation was 25.5% (inactive).

Q: With `O=c1[nH]c(Cc2cccs2)nc2scc(-c3ccc(Cl)cc3)c12` as the compound, how does the activation read?
A: The activation was 14.1% (inactive).

Q: For `Cc1ccc(Nc2nc(CSc3n[nH]c(N)n3)cs2)cc1`, which activation is on record?
A: Its activation is -11.9% (inactive).

Q: Which activation does the source give for `CC(=O)Nc1cccc(-c2csc(Nc3ccc(C)cn3)n2)c1` here?
A: Its activation is -25.2% (inactive).

Q: Which activation does the source give for `COc1ccc(NC2=Nc3ccccc3CC2)cc1` here?
A: The activation was 2.84% (inactive).

Q: With `COc1ccc(/C=C/c2ccc3c(Br)ccc(O)c3n2)cc1` as the compound, how does the activation read?
A: Its activation is 25.4% (inactive).

Q: With `Cc1c(C(=O)Nc2ccccc2F)cnn1-c1ccccc1` as the compound, how does the activation read?
A: Its activation is 27.5% (inactive).

Q: For `Nc1ncccc1OCc1ccc(Br)cc1`, which activation is on record?
A: The activation was -6.84% (inactive).

Q: With `COc1ccccc1C(=O)Nc1ccc2c(C)cc(=O)oc2c1` as the compound, how does the activation read?
A: Its activation is 29.6% (inactive).

Q: Which activation does the source give for `Cc1cccc(C(=O)Nc2sc3c(c2C#N)CCCCC3)c1` here?
A: Its activation is 3.85% (inactive).

Q: For `O=C(CNC(=O)c1cccs1)c1ccc(Br)cc1`, which activation is on record?
A: The activation was 1.98% (inactive).

Q: Which activation does the source give for `CC(c1ccccc1)c1nnc(NC(=O)Nc2ccccc2F)s1` (stereo unspecified) here?
A: The activation was 38.2% (inactive).

Q: Which activation does the source give for `CCn1cnc2c(Nc3cccc(Cl)c3)nc(C#N)nc21` here?
A: The activation was 14.6% (inactive).

Q: With `CC(C)NC(=O)c1ccc2c3n(nc2c1)-c1ccc(Cl)cc1CO3` as the compound, how does the activation read?
A: The activation was -2.69% (inactive).

Q: With `O=C(CNc1ccccc1OC(F)F)N1CCc2ccccc21` as the compound, how does the activation read?
A: Its activation is 31.9% (inactive).

Q: With `CC(C)C(=O)Nc1cccc(C(=O)Nc2nnc(C(C)C)s2)c1` as the compound, how does the activation read?
A: The activation was 16.6% (inactive).

Q: With `COC(=O)C(C)N1C(=O)S/C(=C/c2cc(C)n(C(C)C)c2C)C1=O` (stereo unspecified) as the compound, how does the activation read?
A: Its activation is -32% (inactive).

Q: With `C/C(=N\OC(=O)c1cccc(C(F)(F)F)c1)c1sc(-c2ccccc2)nc1C` as the compound, how does the activation read?
A: Its activation is 14.6% (inactive).

Q: With `Cc1nnc2sc(-c3ccc(N(C)C)cc3)nn2c1=O` as the compound, how does the activation read?
A: The activation was -5.15% (inactive).

Q: With `COC(=O)Cn1c(=NC(=O)c2ccc(Cl)s2)sc2cc(C)ccc21` as the compound, how does the activation read?
A: Its activation is 23.7% (inactive).

Q: Which activation does the source give for `CC(C)(C)C(=O)Nc1nc2cc3c(cc2s1)OCO3` here?
A: The activation was -25.8% (inactive).

Q: Which activation does the source give for `c1ccc(-c2ccc(-c3cnc4n3CCCCC4)cc2)cc1` here?
A: The activation was 30.4% (inactive).

Q: Which activation does the source give for `Cc1ccc(NC(=O)CN2CCCC2c2cccn2C)c(Br)c1` (stereo unspecified) here?
A: The activation was 29% (inactive).

Q: Which activation does the source give for `CCN(CC)S(=O)(=O)c1cccc(C(=O)N/N=C(\C)c2cccs2)c1` here?
A: The activation was 23.7% (inactive).

Q: Which activation does the source give for `CSCC[C@H](NC(=O)[C@@H]1Cc2ccccc2CN1)C(=O)NC[C@H]1CC[C@H](C(=O)O)CC1` here?
A: Its activation is -11.7% (inactive).

Q: Which activation does the source give for `Cc1nc2ccccn2c1C(=O)N/N=C/c1ccc2c(c1)OCO2` here?
A: The activation was 34.3% (inactive).

Q: With `Cc1ccn2cc(-c3cccc(NS(C)(=O)=O)c3)nc2c1` as the compound, how does the activation read?
A: The activation was 32.6% (inactive).

Q: Which activation does the source give for `COc1cccc(CN(C)C(=O)c2ccc(COc3ccc(Cl)cc3)cc2)c1OC` here?
A: Its activation is 32.6% (inactive).

Q: With `O=C(Nc1ccccc1)C(=O)Nc1ccc2c(c1)N(C(=O)C1CC1)CCC2` as the compound, how does the activation read?
A: The activation was -36.8% (inactive).

Q: With `Cc1ccccc1C(=O)O/N=C(\N)Cc1cccs1` as the compound, how does the activation read?
A: Its activation is 23.1% (inactive).

Q: For `COc1ccc(C(=O)Nc2cc(OC)nc(OC)n2)cc1`, which activation is on record?
A: The activation was 6.12% (inactive).

Q: For `CC(=O)c1ccc(NC(=O)c2noc3c2CCCCC3)cc1`, which activation is on record?
A: Its activation is -0.504% (inactive).

Q: With `CCc1nnc(NS(=O)(=O)c2ccc(NC(=O)c3cccc(Cl)c3)cc2)s1` as the compound, how does the activation read?
A: Its activation is -14.9% (inactive).

Q: For `CC(C)(C)c1csc(NC2=NS(=O)(=O)c3ccccc32)n1`, which activation is on record?
A: The activation was 7.7% (inactive).

Q: For `COc1cccc(CNc2nc3ccccc3n2C)c1O`, which activation is on record?
A: Its activation is -9.75% (inactive).

Q: For `CCCc1ccc(-c2cc(C(=O)NCCc3ccc(S(N)(=O)=O)cc3)c3ccccc3n2)cc1`, which activation is on record?
A: Its activation is 26.4% (inactive).

Q: With `CCN(CC)c1ccc(C(=O)NNC(=O)c2cccn2C)cc1` as the compound, how does the activation read?
A: The activation was 25.3% (inactive).

Q: For `CN1CCc2c(sc(NC(=O)c3ccc4ccccc4c3)c2C(N)=O)C1`, which activation is on record?
A: The activation was -68.3% (inactive).

Q: Which activation does the source give for `CCN(CC)S(=O)(=O)c1cc(C(=O)Nc2cc(C)[nH]n2)ccc1Cl` here?
A: Its activation is 32.8% (inactive).

Q: Which activation does the source give for `O=c1[nH]c(COc2ccccc2)nc2ccccc12` here?
A: Its activation is 24.6% (inactive).

Q: With `O=C(Nc1cnc2ccccc2c1)N1CCCCC1` as the compound, how does the activation read?
A: The activation was 8.92% (inactive).

Q: For `Fc1ccccc1Nc1nc2ccccc2o1`, which activation is on record?
A: Its activation is -20% (inactive).

Tested on: SK-MEL-5 TRPM1 promoter luciferase reporter, 24 h
Assay: as above
Conditions: not given

Q: Which AC40 does the source give for `FC(F)(F)c1cnc(-c2cnc(-c3cccnc3)nc2)c(Cl)c1` here?
A: Its AC40 is 3.02 µM.

Q: For `CCC(=O)NCCc1nc2cc(NC(=O)c3ccc(Cl)cc3)ccc2n1C`, which AC40 is on record?
A: The AC40 was 0.755 µM.

Q: With `CC1CCc2sc(C(=O)Nc3ccc(C(N)=O)cc3)cc2C1` (stereo unspecified) as the compound, how does the AC40 read?
A: The AC40 was 15.4 µM.

Q: With `COc1ccc2c(c1OC)C(=O)N(c1ccc(C)cc1)C2` as the compound, how does the AC40 read?
A: The AC40 was 12.3 µM.

Q: With `CN(C)c1ccc(CSc2ccccc2)cc1` as the compound, how does the AC40 read?
A: The AC40 was 1.83 µM.
